Laboratory results taken from ChEMBL document CHEMBL2034917, “Multifunctional mercapto-tacrine derivatives for treatment of age-related neurodegenerative diseases” (J Med Chem, 2012).
The source made the active and inactive calls. The rule behind the calls is not given here.

How the values were obtained:
[1] = system: SH-SY5Y; test: Neuroprotective activity in human SH-SY5Y cells assessed as protection against H2O2-induced oxidative stress at 30 uM incubated for 1 hr prior to H2O2-challenge measured after 12 hrs by MTT assay; assay type: functional
[2] = system: SH-SY5Y; test: Neuroprotective activity in human SH-SY5Y cells assessed as protection against H2O2-induced oxidative stress at 10 uM incubated for 1 hr prior to H2O2-challenge measured after 12 hrs by MTT assay; assay type: functional
[3] = biological target: Acetylcholinesterase (Electrophorus electricus, UniProt O42275); test: Inhibition of electric eel acetylcholine esterase using […] as substrate incubated for 5 mins prior to substrate addition measured every 3 mins by Ellman's assay
Acetylcholinesterase, sequence (O42275 whole entry): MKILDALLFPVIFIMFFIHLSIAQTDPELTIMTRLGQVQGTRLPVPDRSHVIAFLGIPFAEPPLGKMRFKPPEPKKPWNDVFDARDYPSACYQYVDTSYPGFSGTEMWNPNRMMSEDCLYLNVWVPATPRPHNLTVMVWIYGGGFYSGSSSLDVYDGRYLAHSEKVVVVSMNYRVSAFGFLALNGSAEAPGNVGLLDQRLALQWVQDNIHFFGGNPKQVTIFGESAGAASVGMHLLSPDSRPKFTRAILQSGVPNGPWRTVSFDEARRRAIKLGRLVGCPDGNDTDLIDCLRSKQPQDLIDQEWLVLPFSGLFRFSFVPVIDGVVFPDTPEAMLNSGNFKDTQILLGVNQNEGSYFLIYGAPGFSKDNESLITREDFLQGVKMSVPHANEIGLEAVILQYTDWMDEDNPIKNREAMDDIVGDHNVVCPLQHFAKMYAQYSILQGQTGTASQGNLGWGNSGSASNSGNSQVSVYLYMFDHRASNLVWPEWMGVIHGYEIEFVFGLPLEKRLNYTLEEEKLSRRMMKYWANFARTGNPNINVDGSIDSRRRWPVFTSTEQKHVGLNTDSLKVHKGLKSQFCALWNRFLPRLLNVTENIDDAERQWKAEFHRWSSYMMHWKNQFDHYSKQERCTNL

[4] = system: SH-SY5Y; test: Neuroprotective activity in human SH-SY5Y cells assessed as protection against H2O2-induced oxidative stress at 3 uM incubated for 1 hr prior to H2O2-challenge measured after 12 hrs by MTT assay; assay type: functional
[5] = system: Hippocampus; test: (§1) Neuroprotective activity in Sprague-Dawley rat hippocampal CA1 region assessed as enhancement of high frequency stimulation-induced long-term potentiation by measuring field excitatory postsynaptic potentials at 50 uM incubated for 5 mins prior to HFS-induction measured after 10 mins by electrophysiology assay (reference value: 133.7 +/- 3.6%); assay type: functional
[6] = biological target: Cholinesterase (Equus caballus, UniProt P81908)
Cholinesterase, sequence (P81908 whole entry): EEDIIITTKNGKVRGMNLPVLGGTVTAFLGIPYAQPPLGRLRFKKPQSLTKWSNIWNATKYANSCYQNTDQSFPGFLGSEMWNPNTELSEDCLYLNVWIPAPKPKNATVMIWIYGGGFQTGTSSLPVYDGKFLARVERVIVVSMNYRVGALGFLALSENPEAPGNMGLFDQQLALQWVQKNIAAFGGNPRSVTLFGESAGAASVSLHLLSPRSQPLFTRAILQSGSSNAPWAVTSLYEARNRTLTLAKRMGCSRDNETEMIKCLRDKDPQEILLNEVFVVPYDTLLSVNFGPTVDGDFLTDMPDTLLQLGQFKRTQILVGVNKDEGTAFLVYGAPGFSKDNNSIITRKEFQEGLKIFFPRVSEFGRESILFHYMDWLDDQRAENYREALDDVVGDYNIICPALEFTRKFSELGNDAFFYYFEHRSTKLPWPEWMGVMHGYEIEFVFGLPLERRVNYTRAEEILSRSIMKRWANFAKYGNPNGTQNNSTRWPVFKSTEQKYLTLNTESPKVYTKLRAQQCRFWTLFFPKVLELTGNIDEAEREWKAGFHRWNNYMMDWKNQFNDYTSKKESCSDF
Description: Inhibition of equine serum butyrylcholine esterase using butyrylcholine chloride as substrate incubated for 5 mins prior to substrate addition measured every 3 mins by Ellman's assay

[7] = system: SH-SY5Y; test: Neuroprotective activity in human SH-SY5Y cells assessed as protection against H2O2-induced oxidative stress at 1 uM incubated for 1 hr prior to H2O2-challenge measured after 12 hrs by MTT assay; assay type: functional
[8] = system: Rattus norvegicus; test: Hepatotoxicity in Sprague-Dawley rat assessed increase in alanine aminotransferase level in serum at 6 umol/100g of body weight, ip up to 120 hrs; assay type: toxicity, organism-based; details: in vivo
[9] = system: Rattus norvegicus; test: Hepatotoxicity in Sprague-Dawley rat assessed increase in aminotransferase level in serum at 6 umol/100g of body weight, ip up to 120 hrs; assay type: toxicity, organism-based; details: in vivo
[10] = system: SH-SY5Y; test: Neuroprotective activity in human SH-SY5Y cells assessed as protection against H2O2-induced oxidative stress incubated for 1 hr prior to H2O2-challenge measured after 12 hrs by MTT assay; assay type: functional, cell-based
[11] = system: Hippocampus; test: as §1, with “134.3” for “133.7”, “3.9%)” for “3.6%)”; assay type: functional
[12] = system: Rattus norvegicus; test: Neuroprotective activity in Sprague-Dawley rat assessed as enhancement of high frequency stimulation-induced long-term potentiation in hippocampus at 50 uM, icv after 3 hrs (reference value: 126 +/- 3.6%); assay type: functional
[13] = biological target: Acetylcholinesterase (Electrophorus electricus) (UniProt O42275); test: Mixed type inhibition of electric eel acetylcholine esterase using […] as substrate by Lineweaver-Burk reciprocal plot analysis
Acetylcholinesterase (Electrophorus electricus), sequence (O42275 24-633 limits assumed): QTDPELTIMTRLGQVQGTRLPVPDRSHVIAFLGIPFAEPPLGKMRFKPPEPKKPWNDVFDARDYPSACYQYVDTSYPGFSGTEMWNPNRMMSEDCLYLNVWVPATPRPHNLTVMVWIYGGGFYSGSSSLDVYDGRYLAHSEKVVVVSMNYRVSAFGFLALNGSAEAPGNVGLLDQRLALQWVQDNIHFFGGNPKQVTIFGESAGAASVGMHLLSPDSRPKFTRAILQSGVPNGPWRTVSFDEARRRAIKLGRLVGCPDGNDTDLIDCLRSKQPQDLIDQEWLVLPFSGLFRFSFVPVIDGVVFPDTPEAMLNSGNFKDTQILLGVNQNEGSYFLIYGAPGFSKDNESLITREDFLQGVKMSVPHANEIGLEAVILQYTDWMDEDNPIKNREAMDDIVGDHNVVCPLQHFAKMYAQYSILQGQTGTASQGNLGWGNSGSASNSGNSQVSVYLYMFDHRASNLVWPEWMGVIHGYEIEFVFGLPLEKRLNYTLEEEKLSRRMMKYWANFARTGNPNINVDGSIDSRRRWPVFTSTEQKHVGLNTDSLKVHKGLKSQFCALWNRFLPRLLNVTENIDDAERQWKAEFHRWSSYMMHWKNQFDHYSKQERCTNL

[14] = biological target: Acetylcholinesterase (Electrophorus electricus) (UniProt O42275); test: Time dependent inhibition of electric eel acetylcholine esterase using […] as substrate incubated for 5 mins prior to substrate addition measured for 2 to 40 mins by Ellman's assay
[15] = system: Hippocampus; test: as §1, with “potentials” for “potentials at 50 uM”, “136.3” for “133.7”, “5.3%)” for “3.6%)”; assay type: functional

| Structure (SMILES) | Activity [1] | Activity [2] | IC50 [3] | Activity [4] | Activity [5] | IC50 [6] | Activity [7] | Activity [8] | Activity [9] | Activity [10] | Activity [11] | Activity [12] | inhibition [13] | inhibition [14] | Activity [15] |
| --- | --- | --- | --- | --- | --- | --- | --- | --- | --- | --- | --- | --- | --- | --- | --- |
| Cc1c(C)c2c(c(C)c1O)CCC(C)(C(=O)O)O2 (stereo unspecified) [TROLOX] | 59.1% | 44.2% | – | – | – | – | – | – | – | – | – | – | – | – | – |
| O=C(CCS)NCCCNc1c2c(nc3ccccc13)CCCC2 | 34% | 16.7% | 6030 nM | 22% | 160.8% | 182 nM | 45.9% | Non-toxic | Non-toxic | – | – | – | – | – | – |
| O=C(CCS)NCCCCNc1c2c(nc3ccccc13)CCCC2 | 38.2% | 21.5% | 8320 nM | 5.8% | – | 129 nM | 23.8% | – | – | – | – | – | – | – | – |
| CC(=O)SCCC(=O)NCCCCNc1c2c(nc3ccccc13)CCCC2 | 56.5% | 43.6% | 7240 nM | 30.1% | – | 155 nM | 21.7% | – | – | Dose-dependent effect | – | – | – | – | – |
| O=C(CCS)NCCCCCCNc1c2c(nc3cc(Cl)ccc13)CCCC2 | 37.8% | 24.5% | 178 nM | 27.2% | – | 178 nM | 52.3% | – | – | – | 157.1% | 149% | – | – | – |
| CC(=O)SCCC(=O)NCCCCCCNc1c2c(nc3cc(Cl)ccc13)CCCC2 | 34% | 28.5% | 42.7 nM | 17.1% | – | 91.2 nM | 8.1% | – | – | Dose-dependent effect | – | – | Active | inactive | – |
| CC(=O)SCCC(=O)NCCCNc1c2c(nc3ccccc13)CCCC2 | 50.6% | 38.2% | 1740 nM | 35.9% | – | 229 nM | 32.4% | Non-toxic | Non-toxic | Dose-dependent effect | – | – | – | – | 136.2% |
